Assay results reported in patent US8765769B2, “Ring-fused 4-aminopyrimidines and use thereof as stimulators of soluable guanylate cyclases” (Bayer Intellectual Property GmbH, priority 2010, dated 2014).

What was measured:
rabbit aorta rings = assay: Vasorelaxant action in vitro (phenylephrine-contracted rabbit aorta rings); settings: Oryctolagus cuniculus; concentration reducing the phenylephrine-induced contraction of rabbit aorta rings by 50%; DMSO 0.1%
Procedure: B-1. Vasorelaxant Action In Vitro
Rabbits are stunned by a blow to the neck and exsanguinated. The aorta is removed, freed from adhering tissue and divided into rings of width 1.5 mm, which are placed individually under prestress into 5 ml organ baths with carbogen-sparged Krebs-Henseleit solution at 37° C. having the following composition (each mM): sodium chloride 119; potassium chloride: 4.8; calcium chloride dihydrate: 1; magnesium sulfate heptahydrate: 1.4; potassium dihydrogenphosphate: 1.2; sodium hydrogencarbonate: 25; glucose: 10. The contractile force is determined with Statham UC2 cells, amplified and digitalized using A/D transducers (DAS-1802 HC, Keithley Instruments Munich), and recorded in parallel on linear recorders. To obtain a contraction, phenylephrine is added to the bath cumulatively in increasing concentration. After several control cycles, the substance to be studied is added in increasing dosage each time in every further run, and the magnitude of the contraction is compared with the magnitude of the contraction attained in the last preceding run. This is used to calculate the concentration needed to reduce the magnitude of the control value by 50% (IC50 value). The standard administration volume is […]; the DMSO content in the bath solution corresponds to 0.1%.

[1] = tested on: recombinant guanylate cyclase reporter cell line; assay: Effect on a recombinant guanylate cyclase reporter cell line; type: cell-based; settings: recombinant guanylate cyclase reporter cell line (Wunder et al. 2005)
Procedure: B-2. Effect on a Recombinant Guanylate Cyclase Reporter Cell Line
The cellular action of the inventive compounds is determined on a recombinant guanylate cyclase reporter cell line as described in F. Wunder et al., Anal. Biochem. 339, 104-112 (2005).

## CC1(C)C(=O)Nc2nc(-c3nn(Cc4ccccc4F)c4ncccc34)nc(N)c21 [Example 2, 4-amino-2-[1-(2-fluorobenzyl)-1H-pyrazolo[3,4-b]pyridin-3-yl]-5,5-dimethyl-5,7-dihydro-6H-pyrrolo[2,3-d]pyrimidin-6-one]
Rabbit aorta rings
  IC50: 48 nM
[1]
  MEC (minimal effective concentration): 0.001 µM

## CC1(C)C(=O)Nc2nc(-c3nn(Cc4ccccc4F)c4ncc(F)cc34)nc(N)c21 [Example 3, 4-amino-2-[5-fluoro-1-(2-fluorobenzyl)-1H-pyrazolo[3,4-b]pyridin-3-yl]-5,5-dimethyl-5,7-dihydro-6H-pyrrolo[2,3-d]pyrimidin-6-one]
Rabbit aorta rings
  IC50: 9.3 nM
[1]
  MEC (minimal effective concentration): 0.001 µM

## Nc1nc(-c2nn(Cc3ccccc3F)c3ncccc23)nc2c1C1(CCOC1)C(=O)N2 (stereo not drawn) [Example 4, 4′-amino-2′-[1-(2-fluorobenzyl)-1H-pyrazolo[3,4-b]pyridin-3-yl]-4,5-dihydrospiro[furan-3,5′-pyrrolo[2,3-d]pyrimidine]-6′(7′H)-one]
Rabbit aorta rings
  IC50: 24 nM
[1]
  MEC (minimal effective concentration): 0.003 µM
